We go through 9 molecules from patent publication US20230181536A1, “ANTICANCER COMBINATION THERAPY WITH N-(1-ACRYLOYL-AZETIDIN-3-YL)-2-((1H-INDAZOL-3-YL)AMINO)METHYL)-1H-IMIDAZOLE-5-CARBOXAMIDE INHIBITOR OF KRAS-G12C” (TAIHO PHARMACEUTICAL CO., LTD., priority 2020, published 2023).

Broadly, the IC50 is the midpoint of a concentration-inhibition curve.

In one assay the target is T1, G12C K-Ras4B (1-169) (Homo sapiens, UniProt P01116, G12C).
T1 construct: G12C K-Ras4B (1-169)
The assay is described as follows: Test of compounds to determine whether they bind to KRASG12C (LC-MS compound binding rate). Particulars: final compound concentration of 2 μM, 1 μM protein, 25° C. for 2 hours. On the procedure:
Test Example 1: A Test of Compounds to Determine Whether they Bind to KRASG12C
Test compounds were prepared in the form of a 10 mM DMSO solution.
Wt K-Ras4B (1-169) and G12C K-Ras4B (1-169) proteins were mixed and diluted with a buffer (1×TBS, 0.1 mM TCEP) to prepare individual 1 μM protein solutions. A 10 mM test compound was diluted tenfold with DMSO to make a 1 mM solution, and then diluted fivefold with DMSO to make a 200 μM solution. The 200 μM solution was further diluted fivefold to make a 40 μM solution. When the final compound concentration was […], 1 μL of a 200 μM test compound was added to 19 μL of a 1 μM protein solution. When the final compound concentration was 2 μM, 1 μL of a 40 μM test compound was added to 19 μL of a 1 μM protein solution. The mixtures were stored in an incubator at 25° C. for 2 hours, and 80 μL of a 1×TBS solution containing 0.2% formic acid was added thereto to end the reaction, followed by LC-MS measurement. LC-MS measurement was performed using Xevo G2-S Q-Tof manufactured by Waters, and reverse-phase chromatography was performed with a desalting column. A mass spectrum of positive ions was obtained by electrospray. For a mass spectrum, a spectrum of a polyvalent ion was collectively converted to a molecular weight by using OpenLynx software by the MaxEnt technique, and a compound binding rate was obtained from the ratio of a signal intensity that corresponds to the molecular weight of a protein to a signal intensity that corresponds to the molecular weight of a compound binding to the protein.
By obtaining the compound binding rate for wt K-Ras4B (1-169) and the compound binding rate for G12C K-Ras4B (1-169) at the same time, information of the selectivity for G12C K-Ras4B (1-169) was obtained at the same time.
The test compounds were measured at their final compound concentration of 2 μM. […] Almost none of the compounds of the disclosure bound to wt K-Ras4B (1-169). The “binding rate” (%) for each of wt K-Ras4B (1-169) and G12C K-Ras4B (1-169) refers to the ratio of the signal intensity of bound forms to the sum of the signal intensity of non-bound forms and the signal intensity of bound forms.

The next assay addresses T2, KRAS G12C (Homo sapiens, UniProt P01116, G12C).
T2 construct: KRAS G12C (amino acid region: 1-169)
The assay is described as follows: Inhibitory activity on the KRAS G12C nucleotide (GDP-GTP) exchange reaction. The format is biochemical. Particulars: Bodipy FL GDP-bound KRAS G12C 25 nM; preincubation at 25° C. for 4 hours; SOS1 100 nM, GppNHp 1 μM, reaction for 30 minutes. The gist of the method: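 Bodipy FL-GDP-loaded KRAS G12C (aa 1-169, 25 nM) preincubated with compound 4 h at 25 °C in pH 7.5 Tris buffer, 5% DMSO; exchange started with SOS1 (aa 564-1049, 100 nM) and 1 μM GppNHp for 30 min. Fluorescence change (ex 485/em 520 nm) normalized to DMSO and no-GppNHp controls; IC50 calculated.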

Assay [1] concerns the target G12C mutant of inactive KRAS (GDP) (Homo sapiens, UniProt P01116, G12C). Particulars: WO 2014/152588 and Cancer Discov. 6 (3), 316-29, 2016; cited from earlier work.
Assay [2] deals with cancer cells with KRAS G12C mutation. Particulars: WO 2014/152588 and Cancer Discov. 6 (3), 316-29, 2016; cited from earlier work.
In assay [3] the test system is tumor-bearing mice expressing KRAS G12C mutation. Particulars: WO 2015/054572 and Cell. 172 (3), 578-89, 2018; cited from earlier work.
The subject of a further assay is NCI-H358 cells. The assay is described as follows: Growth inhibition activity on KRAS-G12C mutant cell line (NCI-H358) (in vitro). The format is cell-based. The conditions noted are these: Homo sapiens, 72 h, 3-day culture in the presence of the compound, CellTiter-Glo2.0. The protocol:
Test Example 3: A Measurement Test of Growth Inhibition Activity on KRAS-G12C Mutant Cell Line (NCI-H358) (In Vitro) NCI-H358 cells (ATCC, Cat#: CRL-5807), which are a KRAS-G12C mutant human lung cancer cell line, were suspended in a 10% fetal bovine serum-containing RPMI1640 medium (manufactured by Fujifilm Wako Pure Chemical Corporation.). The cell suspension was seeded into each well of a 384-well flat-bottom microplate and cultured in an incubator containing 5% CO2 gas at 37° C. for 1 day. The test compound was dissolved in DMSO and diluted with DMSO to give a concentration 500 times the final concentration. The solution of the test compound in DMSO was diluted with the medium used for suspending cells and added to each well of the cell-culture plate to give a DMSO final concentration of 0.2%, followed by culture in an incubator containing 5% CO2 gas at 37° C. for another 3 days. The cell count after 3-day culture in the presence of the compound was measured using CellTiter-Glo2.0 (manufactured by Promega Corporation) in accordance with the protocol recommended by Promega Corporation. The growth inhibition rate was calculated from the following equation, and the concentration of the test compound at which 50% inhibition was achieved (IC50 (nM)) was determined. […] Growth Inhibition Rate (%)=(C−T)/(C)×100 T: the emission intensity in a well into which a test compound was added. C: the emission intensity in a well into which a test compound was not added.
(In general: ATP-based viability assays read luminescence as a measure of living cells.)

SMILES strings stand for the structures. Structures can show the parent of a compound that is named as a salt.

As for `C=CC(=O)N1C[C@@H](NC(=O)c2c(C)nc(CNc3n[nH]c4cc(Cl)c(C(C)(C)C)cc34)n2C)[C@H]1C` (relative stereo) [Example 52, N-((2R *, 3R*)-1-acryloyl-2-methylazetidin-3-yl)-2-(((5-(tert-butyl)-6-chloro-1H-indazol-3-yl)amino)methyl)-1,4-dimethyl-1H-imidazole-5-carboxamide], the “binding rate for G12C K-Ras4B (1-169)” value at G12C K-Ras4B (1-169) was “B (a binding rate of 60% or more and less than 80% is rated “B,”)”. The same molecule yielded an IC50 against KRAS G12C of 38 nM.

Regarding `C=CC(=O)N1CC(N2CCN(C(=O)CNc3cc(C4(C)CC4)c(Cl)cc3O)CC2)C1` [ARS-853], the “binding to KRAS G12C” value in assay [1] was “binds to the cysteine of the G12C mutant of inactive KRAS (GDP)”. Also, in assay [2], the apoptosis induction result was “inducing apoptosis”.

As to `C=CC(=O)N1CCN(c2ncnc3c(F)c(-c4c(O)cccc4F)c(Cl)cc23)CC1` [ARS-1620], the antitumor action result in assay [3] is reported as “exerts antitumor action”.

In the case of `C=CC(=O)N1CC(NC(=O)c2c(C(F)F)nc(CNc3n[nH]c4cc(Cl)c(C(C)(C)C)cc34)n2C2CCN(C(C)C)C2)C1` (stereo not drawn) [Example 93, N-(1-acryloylazetidin-3-yl)-2-(((5-(tert-butyl)-6-chloro-1H-indazol-3-yl)amino)methyl)-4-(difluoromethyl)-1-(1-isopropylpyrrolidin-3-yl)-1H-imidazole-5-carboxamide formate], the “binding rate for G12C K-Ras4B (1-169)” value at G12C K-Ras4B (1-169) is given as “A (a binding rate of 80% or more is rated “A,”)”. The molecule further showed an IC50 against KRAS G12C of 6 nM.

Regarding `C=CC(=O)N1CC(NC(=O)c2c(Cl)nc(CNc3n[nH]c4cc(Cl)c(C(C)(C)C)cc34)n2[C@@H]2CCN(CC(F)F)C2)C1` [Example 113, (R)-N-(1-acryloylazetidin-3-yl)-2-(((5-(tert-butyl)-6-chloro-1H-indazol-3-yl)amino)methyl)-4-chloro-1-(1-(2,2-difluoroethyl)pyrrolidin-3-yl)-1H-imidazole-5-carboxamide], the figures for the IC50 against KRAS G12C and with NCI-H358 cells were 5 nM and 22 nM, respectively.

Take `C=CC(=O)N1CC(NC(=O)c2c(Cl)nc(CNc3n[nH]c4cc(Cl)c(C(C)(C)C)cc34)n2[C@H]2CCN(CC(F)F)C2)C1` [Example 115, (S)-N-(1-acryloylazetidin-3-yl)-2-(((5-(tert-butyl)-6-chloro-1H-indazol-3-yl)amino)methyl)-4-chloro-1-(1-(2,2-difluoroethyl)pyrrolidin-3-yl)-1H-imidazole-5-carboxamide]: the values for the IC50 against KRAS G12C and in the assay on NCI-H358 cells were 7 nM and 56 nM, respectively.

Consider `C=CC(=O)N1CC(NC(=O)c2cnc(CNc3n[nH]c4cc(Cl)c(Br)cc34)n2C)C1` [Reference Example 1, N-(1-acryloylazetidin-3-yl)-2-(((5-bromo-6-chloro-1H-indazol-3-yl)amino)methyl)-1-methyl-1H-imidazole-5-carboxamide, reference compound], for which the “binding rate for G12C K-Ras4B (1-169)” value on G12C K-Ras4B (1-169) is given as “E (a binding rate of less than 20% is rated “E.”)”. Further, the IC50 on KRAS G12C and with NCI-H358 cells was greater than 10000 nM in each case.

As to `C=CC(=O)N1CC(NC(=O)c2ccc(CNc3n[nH]c4cc(Cl)c(C(C)(C)C)cc34)o2)C1` [Reference Example 2, N-(1-acryloylazetidin-3-yl)-5-(((5-(tert-butyl)-6-chloro-1H-indazol-3-yl)amino)methyl)furan-2-carboxamide, reference compound], on G12C K-Ras4B (1-169), the “binding rate for G12C K-Ras4B (1-169)” value was “E (a binding rate of less than 20% is rated “E.”)”. The molecule also had a half-maximal inhibitory concentration (IC50) against KRAS G12C greater than 10000 nM.

For the molecule `C=CC(=O)N1CC(NC(=O)c2c(-c3ccccc3)nc(CNc3n[nH]c4cc(Cl)c(C(C)(C)C)cc34)n2C)C1` [Reference Example 3, N-(1-acryloylazetidin-3-yl)-2-(((5-(tert-butyl)-6-chloro-1H-indazol-3-yl)amino)methyl)-1-methyl-4-phenyl-1H-imidazole-5-carboxamide, reference compound], the “binding rate for G12C K-Ras4B (1-169)” value at G12C K-Ras4B (1-169) is listed as “E (a binding rate of less than 20% is rated “E.”)”. The molecule also came in with an IC50 at KRAS G12C greater than 10000 nM.
